Literature values as cited in patent publication US20060142288A1, “Combinations and methods for headaches” (priority 2004, published 2006).

Assays:
[1] = 650 mg/day, migraine patients
[2] = 13.5 mg/kg/day or ~1 g per day
[3] = 500 mg daily, six year trial
canine COX-3 = target: T1, canine COX-3 (Canis lupus familiaris, UniProt Q8HZR1); conditions: canine COX-3 compared with murine COX-1 and COX-2
T1 sequence (Q8HZR1 1-633 isoform Q8HZR1-2): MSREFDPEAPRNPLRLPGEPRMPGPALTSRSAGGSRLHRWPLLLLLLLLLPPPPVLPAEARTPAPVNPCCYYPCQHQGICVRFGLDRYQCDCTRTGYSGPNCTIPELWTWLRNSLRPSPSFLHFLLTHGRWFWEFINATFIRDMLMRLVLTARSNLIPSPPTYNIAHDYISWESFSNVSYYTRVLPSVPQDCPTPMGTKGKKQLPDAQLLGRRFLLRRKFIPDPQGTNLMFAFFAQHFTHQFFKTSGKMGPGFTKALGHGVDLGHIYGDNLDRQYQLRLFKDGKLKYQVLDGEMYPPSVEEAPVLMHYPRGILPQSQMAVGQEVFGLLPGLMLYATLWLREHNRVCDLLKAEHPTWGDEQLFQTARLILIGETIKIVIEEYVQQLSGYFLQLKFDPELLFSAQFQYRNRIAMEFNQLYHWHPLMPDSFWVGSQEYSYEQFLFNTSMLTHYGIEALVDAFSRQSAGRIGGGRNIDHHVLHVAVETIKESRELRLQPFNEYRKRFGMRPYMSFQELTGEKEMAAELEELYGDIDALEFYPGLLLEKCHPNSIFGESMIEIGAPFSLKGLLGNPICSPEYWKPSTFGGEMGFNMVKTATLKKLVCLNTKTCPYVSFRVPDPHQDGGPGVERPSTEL

[4] = ASA 500 mg TID, metoprolol in the same study

## CC(=O)Oc1ccccc1C(=O)O [ASA, acetylsalicyclic acid]
[1]
  patients with a reduction of more than 50% in headache frequency: 9 of 12
500 mg TID, p<0.001
  overall migraine frequency: reduced significantly
[4]
  subjects with a reduction of attacks >50% (number of subjects): 3 of 22
  subjects with a reduction of attacks >50% (percent of subjects): 14%
[2]
  frequency, severity and duration of migraine attacks: significantly decrease
[3]
  reduction of the incidence of migraine: 30%

## CC(=O)Nc1ccc(O)cc1 [acetaminophen]
Canine COX-3
  selective inhibition of COX-3: selectively inhibit

## Cc1cc(=O)n(-c2ccccc2)n1C [antipyrine]
Canine COX-3
  selective inhibition of COX-3: selectively inhibit

## Cc1c(N(C)CS(=O)(=O)[O-])c(=O)n(-c2ccccc2)n1C.[Na+] [dipyrone]
Canine COX-3
  selective inhibition of COX-3: selectively inhibit

## CCOc1ccc(NC(C)=O)cc1 [phenacetin]
Canine COX-3
  selective inhibition of COX-3: selectively inhibit
